Results on 19 compounds are retold here after patent US20250034127A1, “AUTOPHAGY INDUCING COMPOUNDS AND USES THEREOF, IN PARTICULAR FOR DISEASES OF THE CNS” (Samsara Therapeutics Inc., priority 2021, published 2025).

This experiment has as its system Human osteosarcoma U2OS cells. The experiment is described as follows: Assay to measure lysosome and autolysosome (acidic vesicle) formation in U2OS cells. To be noted: for activation at 0.8 µM: Homo sapiens, concentration of 0.8 μM, read-out: Activity (percentage increase in acidic vesicle formation over the DMSO-treated control); for acidic vesicle formation relative to a DMSO-treated control: concentration of 10 μM, 24 hours. It counts as cell-based. As to the method: Lysosomes play a fundamental role in the autophagic pathway by fusing with autophagosomes and creating ‘autolysosomes’ in order to digest their contents. Stimulation of lysosome and autolysosome formation by a compound is indicative of a stimulation of autophagy. The ability of compounds to stimulate lysosome and autolysosome formation, and thus autophagy, in live cells was assessed via fluorescent microscopy using various fluorescent stains for labelling and tracking acidic organelles (including lysosomes and autolysosomes) such as: LysoView™ 650 (70059 and 70059-T, Biotium), Lyso View™633 (70058 and 70058-T, Biotium) and LysoTracker™ Deep Red (L12492, ThermoFisher Scientific). The cellular phenotype was quantitatively assessed for the induction of acidic vesicle formation and compared to a non-treated control, thus providing a measure of the ability of the compound under investigation to stimulate autophagy.
Representative procedure using LysoView™ 633 dye or LysoTracker™ Deep Red dye: Human osteosarcoma U2OS cells (40,000 cells/well) were seeded in a 24 well glass bottom plate (Sensoplate, Greiner Bio-One) and were incubated overnight in a humidified atmosphere at 37° C. and 5% CO2. Cells were grown in DMEM (Gibco) supplemented with 10% Fetal Bovine Serum (FBS) and 100 units/ml penicillin and 100 μg/ml streptomycin (Invitrogen). After the attachment period, cells were treated with different compounds of interest (at various concentrations in DMSO) or DMSO (non-treated control) in cell culture medium and were incubated for 24 hours. Compound-containing medium was removed and cells were incubated with pre-warmed cell culture medium containing 1× Lyso View™ 633 (70058 and 70058-T, Biotium) or 50 nM LysoTracker™ Deep Red (L12492, ThermoFisher Scientific) for 45 minutes at 37° C. Finally, cell nuclei were stained for 10 minutes using Hoechst 33342 (1 μg/mL) and then the medium was replaced with fresh medium. The 24 well plate was then fitted into a heated stage on the microscope and cells maintained at 37° C. Images were captured using appropriate filter set for Cy5 and DAPI detection with the EVOS M7000 Microscope (ThermoFisher Scientific). The cellular phenotype was visually assessed for the induction of acidic vesicle formation relative to the non-treated control; multiple images were acquired and analysed using ImageJ or Cell Profiler.

Turning to `CC(=O)N1CCN(C(=O)c2csc(-c3cnn(-c4ccccc4)c3)n2)CC1` [Compound 198, 1-{4-[2-(1-phenyl-1H-pyrazol-4-yl)-1,3-thiazole-4-carbonyl]piperazin-1-yl}ethan-1-one], the activation at 0.8 µM is 10 to 30%.
The same measure, in the same setting: for `C[C@H]1CN(C(=O)c2csc(-c3cnn(-c4ncccn4)c3)n2)CCN1` [Compound 249, 2-(4-{4-[(3S)-3-methylpiperazine-1-carbonyl]-1,3-thiazol-2-yl}-1H-pyrazol-1-yl)pyrimidine] the value was 10 to 30%.
Consider `CN1CCC[C@H](NC(=O)c2csc(-c3cnn(-c4ccccc4)c3)n2)C1` [Compound 208, N-[(3S)-1-methylpiperidin-3-yl]-2-(1-phenyl-1H-pyrazol-4-yl)-1,3-thiazole-4-carboxamide], for which the activation at 0.8 µM was 10 to 30%.
With `CCN1CCC(N(C)C(=O)c2cc(-c3nnc(-c4ccccc4)s3)cs2)CC1` [Compound 258, N-(1-ethylpiperidin-4-yl)-N-methyl-4-(5-phenyl-1,3,4-thiadiazol-2-yl)thiophene-2-carboxamide], the activation at 0.8 µM was 10 to 30% and the “acidic vesicle formation relative to a DMSO-treated control” value is on record as “only a slight increase”.
For the compound `CCN1C[C@@H]2C[C@H]1CC2N(C)C(=O)c1csc(-c2cnn(-c3ccccc3)c2)n1` (stereo partly drawn) [Compound 245, N-[(1S,4S)-2-ethyl-2-azabicyclo[2.2.1]heptan-5-yl]-N-methyl-2-(1-phenyl-1H-pyrazol-4-yl)-1,3-thiazole-4-carboxamide], the activation at 0.8 µM lay within 10 to 30%.
Still for that read-out and setting: for `CCN1CCC(N(C)C(=O)c2csc(-c3cnn(-c4ncccn4)c3)n2)CC1` [Compound 250, N-(1-ethylpiperidin-4-yl)-N-methyl-2-[1-(pyrimidin-2-yl)-1H-pyrazol-4-yl]-1,3-thiazole-4-carboxamide] the value was 10 to 30%; for `CCN1CCC(NC(=O)c2csc(-c3cnn(-c4cnccn4)c3)n2)CC1` [Compound 234, N-(1-ethylpiperidin-4-yl)-2-[1-(pyrazin-2-yl)-1H-pyrazol-4-yl]-1,3-thiazole-4-carboxamide], 30 to 50%; for `O=C(NCCN1CCOCC1)c1csc(-c2cnn(-c3ccccc3)c2)n1` [Compound 204, N-[2-(morpholin-4-yl)ethyl]-2-(1-phenyl-1H-pyrazol-4-yl)-1,3-thiazole-4-carboxamide], 10 to 30%.
The same measure, in the same setting: for `CCN1CCC(N(CC)C(=O)c2csc(-c3cnn(-c4ccccc4)c3)n2)CC1` [Compound 219, N-ethyl-N-(1-ethylpiperidin-4-yl)-2-(1-phenyl-1H-pyrazol-4-yl)-1,3-thiazole-4-carboxamide] the value was > 100%.
Regarding `O=C(NCCN1CCCCC1)c1csc(-c2cnn(-c3ccccc3)c2)n1` [Compound 202, 2-(1-phenyl-1H-pyrazol-4-yl)-N-[2-(piperidin-1-yl)ethyl]-1,3-thiazole-4-carboxamide], the activation at 0.8 µM fell in the range of 30 to 50%.
The same measure, in the same setting: for `NS(=O)(=O)N1CCN(C(=O)c2ccc(-c3cnn(-c4ccccc4C(F)(F)F)c3)[nH]2)CC1` [Compound 216, 4-(5-{1-[2-(trifluoromethyl)phenyl]-1H-pyrazol-4-yl}-1H-pyrrole-2-carbonyl)piperazine-1-sulfonamide] the value was 10 to 30%.
Still for that read-out and setting: as for `CN(C(=O)c1csc(-c2cnn(-c3ccccc3)c2)n1)C1CCN(C(C)(C)C)CC1` [Compound 239, N-(1-tert-butylpiperidin-4-yl)-N-methyl-2-(1-phenyl-1H-pyrazol-4-yl)-1,3-thiazole-4-carboxamide], the figure is 10 to 30%; as for `CCN1CCN(C(=O)c2csc(-c3cnn(-c4ccccc4)c3)n2)CC1` [Compound 236, 1-ethyl-4-[2-(1-phenyl-1H-pyrazol-4-yl)-1,3-thiazole-4-carbonyl]piperazine], 10 to 30%.
For the compound `CCN1CCC(N(C)C(=O)c2csc(-c3cnn(-c4cccnc4)c3)n2)CC1` [Compound 224, N-(1-ethylpiperidin-4-yl)-N-methyl-2-[1-(pyridin-3-yl)-1H-pyrazol-4-yl]-1,3-thiazole-4-carboxamide], the activation at 0.8 µM lay in the range of 50 to 100%.
The same measure, in the same setting: for `CCN1CCC(N(C)C(=O)c2csc(-c3cnn(-c4ccccc4C(F)(F)F)c3)n2)CC1` [Compound 217, N-(1-ethylpiperidin-4-yl)-N-methyl-2-{1-[2-(trifluoromethyl)phenyl]-1H-pyrazol-4-yl}-1,3-thiazole-4-carboxamide] the value was 10 to 30%.
For `C[C@H]1CN(C(=O)c2csc(-c3cnn(-c4cnccn4)c3)n2)CCN1` [Compound 232, 2-(4-{4-[(3S)-3-methylpiperazine-1-carbonyl]-1,3-thiazol-2-yl}-1H-pyrazol-1-yl)pyrazine], the activation at 0.8 µM fell in the range of 50 to 100% and the “acidic vesicle formation relative to a DMSO-treated control” value is listed as “only a slight increase”.
As for `CCN1CCC(N(C)C(=O)c2csc(-c3cnn(-c4cnccn4)c3)n2)CC1` [Compound 233, N-(1-ethylpiperidin-4-yl)-N-methyl-2-[1-(pyrazin-2-yl)-1H-pyrazol-4-yl]-1,3-thiazole-4-carboxamide], the activation at 0.8 µM lay in the range of 50 to 100%.
On to `CCN1C[C@H]2C[C@@H]1CC2NC(=O)c1csc(-c2cnn(-c3ccccc3)c2)n1` (stereo partly drawn) [Compound 244, N-[(1R,4R)-2-ethyl-2-azabicyclo[2.2.1]heptan-5-yl]-2-(1-phenyl-1H-pyrazol-4-yl)-1,3-thiazole-4-carboxamide], for which the activation at 0.8 µM was 10 to 30%.
With `CCN1CCC(NC(=O)c2csc(-c3cnn(-c4cccnn4)c3)n2)CC1` [Compound 231, N-(1-ethylpiperidin-4-yl)-2-[1-(pyridazin-3-yl)-1H-pyrazol-4-yl]-1,3-thiazole-4-carboxamide], the activation at 0.8 µM lay in the range of 10 to 30%.
